Experimental data: ChEMBL document CHEMBL3588836, “Development of Quinoline-2,4(1H,3H)-diones as Potent and Selective Ligands of the Cannabinoid Type 2 Receptor” (J Med Chem, 2015)

Assays:
Cannabinoid receptor 1 [1] = biological target: T1, Cannabinoid receptor 1 (Homo sapiens, UniProt P21554); format: functional, cell-based, CHO
Cannabinoid receptor 2 [2] = biological target: T2, Cannabinoid receptor 2 (Homo sapiens, UniProt P34972); experiment: Antagonist activity against CB2R (unknown origin) CHO cells stably expressing Galpha16 assessed as inhibition of CP55940-induced increase in intracellular calcium level pre-treated 10 mins before CP55940 stimulation by microplate reader based assay; format: functional, cell-based
T2 sequence (P34972 whole entry): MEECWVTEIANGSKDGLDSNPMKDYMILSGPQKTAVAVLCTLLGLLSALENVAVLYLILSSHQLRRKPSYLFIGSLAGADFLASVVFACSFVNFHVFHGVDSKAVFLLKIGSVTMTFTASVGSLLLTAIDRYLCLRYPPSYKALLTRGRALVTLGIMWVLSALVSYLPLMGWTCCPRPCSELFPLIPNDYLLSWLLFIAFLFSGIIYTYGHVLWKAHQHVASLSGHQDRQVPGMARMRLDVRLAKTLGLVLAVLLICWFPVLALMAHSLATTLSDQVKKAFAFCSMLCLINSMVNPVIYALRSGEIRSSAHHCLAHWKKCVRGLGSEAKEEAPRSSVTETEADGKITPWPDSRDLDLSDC

Cannabinoid receptor 2 [3] = biological target: T2, Cannabinoid receptor 2; experiment: Agonist activity at CB2R (unknown origin) CHO cells stably expressing Galpha16 assessed as increase in intracellular calcium level by microplate reader based assay relative to CP55940; format: functional, cell-based
Cannabinoid receptor 2 [4] = biological target: T2, Cannabinoid receptor 2; experiment: Agonist activity at CB2R (unknown origin) CHO cells stably expressing Galpha16 assessed as increase in intracellular calcium level by microplate reader based assay; format: functional, cell-based
Cannabinoid receptor 1 [5] = biological target: T1, Cannabinoid receptor 1; experiment: Agonist activity at CB1R (unknown origin) CHO cells stably expressing Galpha16 assessed as increase in intracellular calcium level by microplate reader based assay; format: functional, cell-based
CHO = experiment: Selectivity index, ratio of EC50 for CB1R (unknown origin) CHO cells stably expressing Galpha16 to EC50 for CB2R (unknown origin) CHO cells stably expressing Galpha16; format: cell-based; details: Homo sapiens

T1 sequence (P21554 whole entry): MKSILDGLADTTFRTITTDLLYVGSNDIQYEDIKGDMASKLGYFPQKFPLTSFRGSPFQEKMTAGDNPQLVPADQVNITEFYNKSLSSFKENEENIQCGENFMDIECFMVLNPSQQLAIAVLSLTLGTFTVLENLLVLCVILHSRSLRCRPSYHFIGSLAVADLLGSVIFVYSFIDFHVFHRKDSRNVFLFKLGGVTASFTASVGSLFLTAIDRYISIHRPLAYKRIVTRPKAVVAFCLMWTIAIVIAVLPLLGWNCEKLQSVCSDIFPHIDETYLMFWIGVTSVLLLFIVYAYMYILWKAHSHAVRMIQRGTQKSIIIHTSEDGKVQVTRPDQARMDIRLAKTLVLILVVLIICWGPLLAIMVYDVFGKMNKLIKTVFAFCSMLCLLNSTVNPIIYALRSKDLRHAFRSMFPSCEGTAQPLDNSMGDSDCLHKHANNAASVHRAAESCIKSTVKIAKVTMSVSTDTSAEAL

| SMILES | IC50 (Cannabinoid receptor 1 [1]) | IC50 (Cannabinoid receptor 2 [2]) | Emax (Cannabinoid receptor 2 [3]) | EC50 (Cannabinoid receptor 2 [4]; read-out: EC50) | EC50 (Cannabinoid receptor 1 [5]) | Ratio EC50 (CHO) | EC50 (Cannabinoid receptor 2 [4]; read-out: pEC50 (converted)) |
| --- | --- | --- | --- | --- | --- | --- | --- |
| CCCCCN1C(=O)/C(=C/NC2CCCCC2)C(=O)c2cc(OC)cc(OC)c21 | > 10 µM | > 10 µM | – | – | – | – | – |
| CCCCCN1C(=O)/C(=C/NC2CCCCC2)C(=O)c2cc(C(F)(F)F)ccc21 | > 10 µM | > 10 µM | – | – | – | – | – |
| C=CCCN1C(=O)/C(=C/NC(C)(C)C)C(=O)c2cccc(C)c21 | – | – | 92.6% | 75.3 nM | > 10 µM | > 133 | – |
| CCCCCN1C(=O)/C(=C/NC2CCCCC2)C(=O)c2c(OC)cccc21 | – | – | – | > 10000 nM | > 10 µM | – | – |
| CCCCCCN1C(=O)/C(=C/NC2CCCCC2)C(=O)c2cc(OC)ccc21 | > 10 µM | > 10 µM | – | – | – | – | – |
| CCCCN1C(=O)/C(=C/NC(C)CCC)C(=O)c2cccc(C)c21 (stereo unspecified) | – | – | 53.6% | 116 nM | > 10 µM | > 86.2 | – |
| CCCCN1C(=O)/C(=C/NC2CCCCC2)C(=O)c2ccccc21 | – | – | 185% | 1580 nM | > 10 µM | > 6.33 | – |
| CCCCN1C(=O)/C(=C/NC2CCCCC2)C(=O)c2cccc(Cl)c21 | – | – | – | > 10000 nM | > 10 µM | – | – |
| CCCCCN1C(=O)/C(=C/NC2CCCCC2)C(=O)c2ccc(Cl)cc21 | > 10 µM | > 10 µM | – | – | – | – | – |
| CCCCN1C(=O)/C(=C/NC2CCCCC2)C(=O)c2cccc(CC)c21 | – | – | 86.9% | 797 nM | > 10 µM | > 12.5 | 800 nM |
| CCCCN1C(=O)/C(=C/NC2CCCCC2)C(=O)c2cccc(OC)c21 | – | – | 86.1% | 1420 nM | > 10 µM | > 7.04 | – |
| CCCCN1C(=O)/C(=C/NCc2ccc(F)cc2)C(=O)c2cccc(C)c21 | – | – | – | > 10000 nM | > 10 µM | – | – |
| CCCCCN1C(=O)/C(=C/NC2CCCCC2)C(=O)c2cccc(OC)c21 | – | – | – | > 10000 nM | > 10 µM | – | – |
| CCCCN1C(=O)/C(=C/NCC2CC2)C(=O)c2cccc(C)c21 | – | – | 43.4% | 127 nM | > 10 µM | > 78.7 | – |
| CCCCN1C(=O)/C(=C/NC2CC2)C(=O)c2cccc(C)c21 | – | – | 81.8% | 503 nM | > 10 µM | > 19.9 | – |
| CCCCN1C(=O)/C(=C/NN2CCCCC2)C(=O)c2cccc(C)c21 | – | – | 58% | 993 nM | > 10 µM | > 10.1 | – |
| CCCCN1C(=O)/C(=C/NC(C)(C)C)C(=O)c2cccc(C)c21 | – | – | 135% | 20 nM | > 10 µM | > 500 | – |
| CCCCN1C(=O)/C(=C/Nc2ccc(F)cc2)C(=O)c2cccc(C)c21 | – | – | – | > 10000 nM | > 10 µM | – | – |
| CCCCCN1C(=O)/C(=C/NC2CCCCC2)C(=O)c2cc(C)ccc21 | > 10 µM | > 10 µM | – | – | – | – | – |
| CCCCCN1C(=O)/C(=C/NC2CCCCC2)C(=O)c2cc(OC(F)(F)F)ccc21 | > 10 µM | > 10 µM | – | – | – | – | – |
| Cc1cccc2c1N(CC1CC1)C(=O)/C(=C/NC(C)(C)C)C2=O | – | – | 140% | 104 nM | > 10 µM | > 96.2 | – |
| CCCCN/C=C1\C(=O)c2cccc(C)c2N(CCCC)C1=O | – | – | 64.7% | 90.7 nM | > 10 µM | > 110 | 91 nM |
| CCCN1C(=O)/C(=C/NC2CCCCC2)C(=O)c2cccc(C)c21 | – | – | 68.2% | 497 nM | > 10 µM | > 20.1 | – |
| CCCCN1C(=O)/C(=C/NCc2cccnc2)C(=O)c2cccc(C)c21 | – | – | – | > 10000 nM | > 10 µM | – | – |

| SMILES | IC50 (Cannabinoid receptor 1 [1]) | IC50 (Cannabinoid receptor 2 [2]) | Emax (Cannabinoid receptor 2 [3]) | EC50 (Cannabinoid receptor 2 [4]; read-out: EC50) | EC50 (Cannabinoid receptor 1 [5]) | Ratio EC50 (CHO) | EC50 (Cannabinoid receptor 2 [4]; read-out: pEC50 (converted)) |
| --- | --- | --- | --- | --- | --- | --- | --- |
| C=CCCN1C(=O)/C(=C/NC2CCCCC2)C(=O)c2cccc(C)c21 | – | – | 135% | 749 nM | > 10 µM | > 13.4 | – |
| Cc1cccc2c1N(CC1CC1)C(=O)/C(=C/NC1CCCCC1)C2=O | – | – | 111% | 670 nM | > 10 µM | > 14.9 | – |
| CCCCN1C(=O)/C(=C/NC2CCCC2)C(=O)c2cccc(C)c21 | – | – | 129% | 58 nM | > 10 µM | > 172 | – |
| CCCCN1C(=O)/C(=C/NCCC)C(=O)c2cccc(C)c21 | – | – | – | > 10000 nM | > 10 µM | – | – |
| CCCCN1C(=O)/C(=C/NC23CC4CC(CC(C4)C2)C3)C(=O)c2cccc(C)c21 | – | – | 137% | 317 nM | > 10 µM | > 31.5 | – |
| CCCCCN1C(=O)/C(=C/NC2CCCCC2)C(=O)c2cccc(CC)c21 | – | – | – | > 10000 nM | > 10 µM | – | – |
| CCCCN1C(=O)/C(=C/Nc2ccccn2)C(=O)c2cccc(C)c21 | – | – | 47.2% | 2390 nM | > 10 µM | > 4.18 | – |
| CCCCN1C(=O)/C(=C/NC(C)C(C)C)C(=O)c2cccc(C)c21 (stereo unspecified) | – | – | 120% | 82.7 nM | > 10 µM | > 121 | 83 nM |
| CCCCCN1C(=O)/C(=C/NC2CCCCC2)C(=O)c2ccccc21 | – | – | 101% | 472 nM | > 10 µM | > 21.2 | – |
| CCCCN1C(=O)/C(=C/NC(C)C)C(=O)c2cccc(C)c21 | – | – | – | > 10000 nM | > 10 µM | – | – |
| CCCCCN1C(=O)/C(=C/NC2CCCCC2)C(=O)c2cccc(C)c21 | – | – | 70.3% | 320 nM | > 10 µM | > 31.3 | – |
| CCCCN1C(=O)/C(=C/NCC(C)C)C(=O)c2cccc(C)c21 | – | – | 99% | 44.3 nM | > 10 µM | > 226 | 44 nM |
| CCCCCN1C(=O)/C(=C/NC2CCCCC2)C(=O)c2cc(C(C)(C)C)ccc21 | > 10 µM | > 10 µM | – | – | – | – | – |
| CCCCN1C(=O)/C(=C/N[C@H]2CC[C@H](O)CC2)C(=O)c2cccc(C)c21 | – | – | – | > 10000 nM | > 10 µM | – | – |
| CCCCN1C(=O)/C(=C/NCC2CCC2)C(=O)c2cccc(C)c21 | – | – | 87.7% | 220 nM | > 10 µM | > 45.5 | – |
| CCCN1C(=O)/C(=C/NC(C)(C)C)C(=O)c2cccc(C)c21 | – | – | 126% | 36.3 nM | > 10 µM | > 275 | – |
| CCCCN1C(=O)/C(=C/NC(C)(C)CO)C(=O)c2cccc(C)c21 | – | – | 127% | 41.3 nM | 0.557 µM | 13.5 | 41 nM |
| O=C(NCC1CCOCC1)c1cnc(Nc2ccc(Cl)cc2Cl)nc1C(F)(F)F [GW842166X] | – | – | 91.6% | 437 nM | > 10 µM | > 22.9 | – |
| CCN1C(=O)/C(=C/NC2CCCCC2)C(=O)c2cccc(C)c21 | – | – | 95% | 17900 nM | > 10 µM | > 0.559 | – |
| CCCCN1C(=O)/C(=C/NC(CC)CC)C(=O)c2cccc(C)c21 | – | – | 137% | 113 nM | > 10 µM | > 88.5 | 112 nM |
| CCCCN1C(=O)/C(=C/NN2CCOCC2)C(=O)c2cccc(C)c21 | – | – | 78.7% | 477 nM | > 10 µM | > 21 | – |
| CCCCN1C(=O)/C(=C/NC2CCCCC2)C(=O)c2c(C)cccc21 | – | – | 104% | 341 nM | > 10 µM | > 29.3 | – |
| CCCCN1C(=O)/C(=C/NC(C)(C)CC)C(=O)c2cccc(C)c21 | – | – | 158% | 75.3 nM | 2.02 µM | 26.8 | 75 nM |
